Where a SMILES comes first, the peptide text is derived from it. The star is where a group is joined. Palmitoyl = CCCCCCCCCCCCCCCC(=O)*
Legend:
[1] = test system: splenocytes taken from mice 129 (Wild type: WT); test: Involvement of the IFN-γ receptor: IA^d and Fc-γ R on splenocytes of wild type mice 129; assay type: cell-based; conditions: stimulation for 24 hours, flow cytometry
Experimental: (§1) Procedure. The splenocytes and peritoneal cells taken from an animal (Balb/c mouse) are re-cultured at a rate of 2.5×10^6 splenocytes and […] peritoneal cells per well in 24-well plates (NUNC) stimulated with 50 μM of the different peptides in a final volume of 1 ml. After stimulation for 24 hours, the cells are labelled with the anti IA^d monoclonal antibody described in the preceding paragraph, according to the same protocol. To detect the Fc-γ R, the cells are labelled with 1 μg of a rat anti Fc-γ R monoclonal antibody (Pharmingen, San Diego, USA). Next, the cells are incubated for ½ hour with a rat anti IgG biotinylated polyclonal antibody. The revelation is then carried out with FITC streptavidin used at a dilution of 1:100 (Sigma, St. Louis, USA). The expression of Fc-γ R is determined by flow cytometry.
(§2) Principle. to confirm that the biological activity observed was effectively associated with a stimulation of the IFN-γ receptor, we repeated the same experiments, in parallel on splenocytes taken from mice 129 (Wild type: WT) and on cells taken from mice 129 no longer expressing the alpha chain of the IFN-γ receptor (KO mice).
(§3) Procedure. The experimental protocol followed is identical to that described in paragraph 2 above.

[2] = test system: WEHI3; test: Induction of class II CMH molecules on WEHI3 cell line, flow cytometry; assay type: cell-based, murine; conditions: 50 μM, stimulated for 24 hours
Experimental: (§4) Principle: to check the induction of class II CMH molecules on cell lines (P388D1 and WEHI3: murine myelomonocytes) with the above-mentioned peptides.
(§5) Procedure. The cells are cultured the day before at a rate of 3×10^5 cells per well in 24-well culture plates (NUNC). The following day, the cells are stimulated with the various lipopeptide and peptide constructs at a final concentration of 50 μM in 1 ml of medium. After incubation for 24 hours at 37° C. in an atmosphere saturated with 5% CO2, the cells are recovered and incubated for 1 hour at 4° C. with 3 μg of a biotinylated mouse anti-I-Ad monoclonal antibody (Pharmingen, San Diego, USA). After revelation for 30 minutes with FITC streptavidin used at a dilution of 1:100 (Sigma, St. Louis, USA), the expression of class II molecules is determined by flow cytometry.

[3] = test system: peritoneal cells; test: Expression of class II CMH molecules and Fc-γ receptors on peritoneal cells taken from an animal; assay type: cell-based, Balb/c mouse; conditions: 50 μM, 24 hours, flow cytometry
Experimental: (§6) Principle: to evaluate the activity of the vectorized agonist on cells taken from an animal and treated in vitro (in order to assess the value of a subsequent in vivo study).
as §1

[4] = test system: splenocytes; test: Expression of class II CMH molecules and Fc-γ receptors on splenocytes taken from an animal; assay type: cell-based, Balb/c mouse; conditions: 50 μM, 24 hours, flow cytometry
Experimental: as §6, §1

[5] = test system: P388D1; test: Induction of class II CMH molecules on P388D1 cell line, flow cytometry; assay type: cell-based, murine; conditions: for percentage of class II CMH detected by flow cytometry, P388D1: 50 μM, stimulated for 24 hours
Experimental: as §4, §5

[6] = test system: cells taken from mice 129 no longer expressing the alpha chain of the IFN-γ receptor (KO mice); test: Involvement of the IFN-γ receptor: IA^d and Fc-γ R on cells of mice lacking the alpha chain of the IFN-γ receptor; assay type: cell-based; conditions: stimulation for 24 hours, flow cytometry
Experimental: as §1, §2, §3

[7] = test system: murine splenocytes; test: Induction of class II CMH molecules (IA^b) on murine splenocytes by lipopeptide fragments (FIG. 12A); assay type: cell-based, 129 Sv mice; conditions: for increase in class II CMH molecules (FIG. 12A): murine splenocytes, 24 hours, different concentrations
Experimental: (§7) Fresh splenocytes are obtained from 7-week-old female 129 Sv mice. The COLO 205 human colon carcinoma lines are obtained from the ATCC (American Type Culture Collection). The splenocytes and COLO 205 cells are maintained in RPMI 1640 (Gibco BRL, Courbevoie, France), supplemented with 10% FCS (Gibco BRL), sodium pyruvate (Sigma, St. Louis, USA) and incubated at 37° C. in 5% CO2.
(§8) The cells were stimulated for 24 hours with different concentrations of MuL, L-mIFNγ 113-132, L-mIFNγ 122-132 or MuSL. The murine splenocytes and COLO 205 cells were labelled for the expression of II MHC with 1 μg of anti-mouse IA^b FITC monoclonal antibody (mAb) (Pharmingen, San Diego, USA) and 10 μl of anti-HLA-DR clone TAL.1B5 mouse FITC mAb (Cymbus Biotechnology Ltd, Hants, UK), respectively. A negative control mouse FITC IgG1 (DAKO S. A., Trappes, France) was used as control isotype. The cells were incubated for 1 hour at 4° C. in PBS, 10% FCS and then washed, and the expression of II MHC was analysed by flow cytometry using a Coulter EPILS II cytometer (Coulter, Hialeah, Fla., USA) at a rate of 10,000 events per sample.
(§9) FIG. 12: Induction of class II CMH molecules by human or murine cells stimulated with lipopeptides derived from IFN-γ. The murine splenocytes (A) and the COLO 205 human cell line (B) were incubated for 24 hours with different concentrations of lipopeptides derived from IFN-γ. The cells were labelled with a monoclonal antibody directed against the class II CMH molecules, and analysed by flow cytometry. The ratio between the average fluorescence intensity of the cells treated with the lipopeptides and between the average fluorescence intensity of the untreated cells is indicated on the y-axis. The lipopeptide concentration is indicated in μM on the x-axis; MuL: solid circles; MuSL : hollow circles; L-mIFN 113-132: triangles; L-mIFN 122-132: X.

[8] = test system: murine splenocytes and COLO 205 cells; test: Cytotoxicity at high lipopeptide concentrations; assay type: cell-based
[9] = test system: COLO 205 human cell line; test: Induction of HLA-DR on COLO 205 cells by lipopeptide fragments (FIG. 12B); assay type: cell-based; conditions: for increase in class II CMH molecules (FIG. 12B): COLO 205, 24 hours, different concentrations
Experimental: as §7, §8, §9

[10] = test system: human colon carcinoma cells (COLO 205); test: Induction of HLA-DR on COLO 205 cell line, flow cytometry; assay type: cell-based; conditions: COLO 205, 50 μM
Experimental: Principle: human colon carcinoma cells (COLO 205) are analysed for their ability to express HLA-DR after having been stimulated with the various peptide constructs.
Procedure. The cell line COLO 205 is cultured at a rate of 3×10^5 cells per well in a 24-well culture plate (NUNC). The following day, the cells are stimulated with the various peptide constructs at a final concentration of 50 μM in 1 ml of medium, and are incubated at 37° C. for 24 hours. The cells are then recovered and labelled using 3 μg of an anti HLA-DR mouse biotinylated monoclonal antibody (clone L243). After revelation with FITC streptavidin, the cells are analysed by flow cytometry.

[11] = Circular dichroism studies; assay type: physicochemical; conditions: 2 mM pH 7 phosphate buffer
Experimental: The circular dichroism measurements on the peptides were carried out at 25° C. using a Jobin-Yvon CD-6 machine at controlled temperature. The scans were carried out with a cell 0.1 cm in length in an average time of 5 sec. The wavelength interval measured ranges from 185 to 260 nm at a scanning step speed of 0.5 nm/step. The scans were carried out on the peptides at neutral pH in a 2 mM phosphate buffer with or without the helix-stabilizing reagent trifluoroethanol (TFE). The peptide concentration was adjusted to a concentration of 20 μM, after determination of the exact amount of a 100 μM solution by quantitative amino acid analysis. The average values of 4 repeat scans were expressed as average molar ellipticity per residue (deg. cm^2 dmol.).

Row | Compound | WT mice II CMH (%) [1] | WT mice RFc (%) [1] | percentage of class II CMH detected by flow cytometry, WEH1 [2] | peritoneal cells II CMH (%) [3] | peritoneal cells RFc (%) [3] | splenocytes II CMH (%) [4] | splenocytes RFc (%) [4] | percentage of class II CMH detected by flow cytometry, P388D1 [5] | KO mice II CMR (%) [6] | KO mice RFc (%) [6] | increase in class II CMH molecules (FIG. 12A) [7] | cytotoxicity [8] | increase in class II CMH molecules (FIG. 12B) [9] | helical (ordered) conformation by CD ([11]; 25% trifluoroethanol) | other results
1 | MuS: non-lipid scrambled analogue of the Mu peptide (PSRENQNAVKIQKLSVVLRREQKHRVERLAFRNQSLPF) | 3% | 1% | 5% | 6% | 8% | 9% | 8% | 14% | 3% | 1% |  |  |  |  | 
2 | L-mIFN-γ 113-132: fragment 113-132 of murine IFNγ, carboxamide end, N-terminal Ac-K(Pam) group (Ac-K(Palmitoyl)IRVVHQLLPESSLRKRKRSR-NH2; SMILES CCCCCCCCCCCCCCCC(=O)NCCCC[C@H](NC(C)=O)C(=O)N[C@H](C(=O)N[C@@H](CCCNC(=N)N)C(=O)N[C@H](C(=O)N[C@H](C(=O)N[C@@H](Cc1c[nH]cn1)C(=O)N[C@@H](CCC(N)=O)C(=O)N[C@@H](CC(C)C)C(=O)N[C@@H](CC(C)C)C(=O)N1CCC[C@H]1C(=O)N[C@@H](CCC(=O)O)C(=O)N[C@@H](CO)C(=O)N[C@@H](CO)C(=O)N[C@@H](CC(C)C)C(=O)N[C@@H](CCCNC(=N)N)C(=O)N[C@@H](CCCCN)C(=O)N[C@@H](CCCNC(=N)N)C(=O)N[C@@H](CCCCN)C(=O)N[C@@H](CCCNC(=N)N)C(=O)N[C@@H](CO)C(=O)N[C@@H](CCCNC(=N)N)C(N)=O)C(C)C)C(C)C)[C@@H](C)CC) |  |  |  |  |  |  |  |  |  |  | marked dose-dependent increase | not cytotoxic | marked dose-dependent increase |  | increase in the expression of class II CMH molecules ([7]; 50 μM, splenocytes freshly obtained from mice): 13 fold; factor of increase of the expression of IA^b ([7]; 100 μM (280 μg/ml), murine cells): 18; increase in the expression of HLA-DR ([9]; 50 μM, human cells): 10 fold; increase in the expression of HLA-DR ([9]; 75 μM (210 μg/ml), human cell lines): 15 fold
3 | Mu: non-lipid peptide: sequence delimited by the amino acids in positions 95 and 132 of the murine IFN-γ peptide sequence (AKFEVNNPQVQRQAFNELIRVVHQLLPESSLRKRKRSR; listed as Mus sp.) | 12% | 1% | 8% | 13% | 8% | 12% | 7% | 5% | 3% | 1% | inactive |  | inactive | 53% | induction of the expression of HLA-DR [10]: no activity; % HLA-DR ([10]; 24 hours, flow cytometry): 1.2%; helical (ordered) conformation by CD ([11]; 50% trifluoroethanol): 65%
4 | L-mIFN-γ 122-132: fragment 122-132 of murine IFNγ, carboxamide end, N-terminal Ac-K(Pam) group (Ac-K(Palmitoyl)ESSLRKRKRSR-NH2; SMILES CCCCCCCCCCCCCCCC(=O)NCCCC[C@H](NC(C)=O)C(=O)N[C@@H](CCC(=O)O)C(=O)N[C@@H](CO)C(=O)N[C@@H](CO)C(=O)N[C@@H](CC(C)C)C(=O)N[C@@H](CCCNC(=N)N)C(=O)N[C@@H](CCCCN)C(=O)N[C@@H](CCCNC(=N)N)C(=O)N[C@@H](CCCCN)C(=O)N[C@@H](CCCNC(=N)N)C(=O)N[C@@H](CO)C(=O)N[C@@H](CCCNC(=N)N)C(N)=O) |  |  |  |  |  |  |  |  |  |  | neither L-mIFN-γ 122-132 nor MuSL are active |  | neither L-mIFN-γ 122-132 nor MuSL are active | 50-60% | 
5 | CCCCCCCCCCCCCCCC(=O)NCCCC[C@H](NC(C)=O)C(=O)N[C@@H](C)C(=O)N[C@@H](CCCCN)C(=O)N[C@@H](Cc1ccccc1)C(=O)N[C@@H](CCC(=O)O)C(=O)N[C@H](C(=O)N[C@@H](CC(N)=O)C(=O)N[C@@H](CC(N)=O)C(=O)N1CCC[C@H]1C(=O)N[C@@H](CCC(N)=O)C(=O)N[C@H](C(=O)N[C@@H](CCC(N)=O)C(=O)N[C@@H](CCCNC(=N)N)C(=O)N[C@@H](CCC(N)=O)C(=O)N[C@@H](C)C(=O)N[C@@H](Cc1ccccc1)C(=O)N[C@@H](CC(N)=O)C(=O)N[C@@H](CCC(=O)O)C(=O)N[C@@H](CC(C)C)C(=O)N[C@H](C(=O)N[C@@H](CCCNC(=N)N)C(=O)N[C@H](C(=O)N[C@H](C(=O)N[C@@H](Cc1c[nH]cn1)C(=O)N[C@@H](CCC(N)=O)C(=O)N[C@@H](CC(C)C)C(=O)N[C@@H](CC(C)C)C(=O)N1CCC[C@H]1C(=O)N[C@@H](CCC(=O)O)C(=O)N[C@@H](CO)C(=O)N[C@@H](CO)C(=O)N[C@@H](CC(C)C)C(=O)N[C@@H](CCCNC(=N)N)C(=O)N[C@@H](CCCCN)C(=O)N[C@@H](CCCNC(=N)N)C(=O)N[C@@H](CCCCN)C(=O)N[C@@H](CCCNC(=N)N)C(=O)N[C@@H](CO)C(=O)N[C@@H](CCCNC(=N)N)C(N)=O)C(C)C)C(C)C)[C@@H](C)CC)C(C)C)C(C)C [MuL] (Ac-K(Palmitoyl)AKFEVNNPQVQRQAFNELIRVVHQLLPESSLRKRKRSR-NH2) |  |  |  |  |  |  |  |  |  |  |  | cytotoxic |  |  | 
6 | recombinant IFN-γ: recombinant interferon-gamma cytokine used as reference |  |  |  |  |  |  |  |  |  |  |  |  |  |  | stimulation time at which induction of class II CMH molecules is at a maximum ([5]; cell lines of Table 8): 48 h

— patent US6683052B1, “Lipopeptides containing an interferon-γ fragment, and uses thereof in pharmaceutical compositions” (Institut National de la Sante et de la Recherche Medicale …, priority 1998, dated 2004)
